Some test systems named below: 786-0 renal; A498 renal; A549 NSCLC; COLO 205 colon; HCC-2998 colon; HCT-15 colon; M14 melanoma; MDA-MB-231 breast; SNB-75 CNS; NCI-H522 lung.
Common to all, as to assay: DTP human tumour cell line panel, 48 h

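Cells were grown in 96-well plates and exposed to each compound for 48 hours at five concentrations; endpoints were interpolated linearly between bracketing concentrations, or set to the highest concentration if not reached. Abbreviation: GI50, concentration required for 50% inhibition of growth. TGI is the concentration that stops growth completely.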

A word on the GI50: it is the concentration that inhibits growth by half. As a reminder, the TGI is the concentration at which net growth stops. Higher therefore signals lower sensitivity of the cells. With `CN(C)c1ccc(O)c2c1C[C@H]1C[C@H]3[C@H](N(C)C)C(=O)C(C(N)=O)=C(O)[C@@]3(O)C(=O)C1=C2O`, the GI50 in the experiment on 786-0 renal is 4.45 µM; in the experiment with A498 renal it was 1.49 µM; in the experiment with A549 NSCLC it was 5.65 µM; in the experiment with COLO 205 colon, 5.51 µM; in the experiment on HCC-2998 colon, 4.19 µM; in the experiment on HCT-15 colon it was 4.02 µM. Further, the GI50 in the experiment on M14 melanoma is 5.09 µM; in the experiment with MDA-MB-231 breast, 10.5 µM; in the experiment on SNB-75 CNS, 4.88 µM. Besides, the TGI with 786-0 renal is 22.3 µM; in the experiment on A498 renal, 10.5 µM; with A549 NSCLC, > 100 µM; in the experiment with COLO 205 colon it was 20.5 µM; in the experiment on HCC-2998 colon, 17.8 µM; with HCT-15 colon it was 94 µM. Besides, the TGI turned out to be 65.9 µM with M14 melanoma, 43.6 µM in the experiment on MDA-MB-231 breast and 68.7 µM in the experiment on SNB-75 CNS.

With `Clc1ccc2c(c1)-c1ccccc1C1=NCCN12`, the GI50 in the experiment on 786-0 renal was 1.66 µM; with A549 NSCLC it was 1.53 µM; in the experiment with COLO 205 colon, 1.61 µM; in the experiment on HCC-2998 colon it was 1.87 µM; in the experiment with HCT-15 colon, 2.71 µM; in the experiment with M14 melanoma it was 1.56 µM. Besides, the GI50 with MDA-MB-231 breast was 2.69 µM; with NCI-H522 lung it was 1.52 µM; in the experiment with SNB-75 CNS it was 1.62 µM. For the same compound, the TGI with 786-0 renal came out at 3.52 µM; in the experiment on A549 NSCLC, 3.77 µM; in the experiment with COLO 205 colon, 3.54 µM; with HCC-2998 colon, 3.76 µM; in the experiment on HCT-15 colon, 9.62 µM; in the experiment with M14 melanoma, 3.07 µM. Also, the TGI with MDA-MB-231 breast came to 12.4 µM; with NCI-H522 lung, 3.48 µM; in the experiment on SNB-75 CNS, 5.42 µM.

As for `COc1cc(-c2oc3c(OC)c(O)c(OC)c(O)c3c(=O)c2OC)ccc1O`, the TGI in the experiment on 786-0 renal, in the experiment with A498 renal, in the experiment on A549 NSCLC, in the experiment with COLO 205 colon, in the experiment with HCC-2998 colon and in the experiment on HCT-15 colon was > 100 µM throughout. For the same compound, the TGI in the experiment on M14 melanoma is 96 µM; in the experiment with MDA-MB-231 breast, > 100 µM; in the experiment with NCI-H522 lung it was 66.9 µM.

`CSC1C(=O)c2ccccc2/C(=N/Nc2nc3ccccc3s2)C1C` (configuration not stated): the GI50 in the experiment with 786-0 renal is 10.1 µM; in the experiment on A549 NSCLC it was 16 µM; with COLO 205 colon, 9.63 µM; in the experiment on HCT-15 colon it was 7.58 µM; in the experiment on M14 melanoma it was 14.6 µM; in the experiment with MDA-MB-231 breast, 7.79 µM. The GI50 in the experiment with NCI-H522 lung was 6.95 µM. Moreover, the TGI worked out at 19.7 µM in the experiment with 786-0 renal; 44.4 µM in the experiment with A549 NSCLC; 21.1 µM with COLO 205 colon; 15.8 µM in the experiment with HCT-15 colon; 33.1 µM in the experiment on M14 melanoma; 15.8 µM in the experiment with MDA-MB-231 breast. In the experiment with NCI-H522 lung, this compound returned a TGI of 26.3 µM.

For the compound `CC(C)C[C@@H]1NC(=O)[C@@H]2CCCN2C(=O)[C@@H]2CCCN2C(=O)[C@H](CC(C)C)NC(=O)[C@H](CO)NC(=O)[C@H](CCCCN)NC(=O)[C@H]([C@H](C)O)NC(=O)[C@@H]2CCCC[C@@H](NC1=O)C(=O)N[C@@H](Cc1ccccc1)C(=O)N1CCC[C@H]1C(=O)N[C@@H](CC(=O)O)C(=O)NCC(=O)N[C@@H](CCCN=C(N)N)C(=O)N2`, the GI50 with 786-0 renal, in the experiment on A549 NSCLC, with COLO 205 colon, with HCC-2998 colon, in the experiment on HCT-15 colon and in the experiment on MDA-MB-231 breast was > 50 µM throughout. Also, the GI50 in the experiment on NCI-H522 lung is > 50 µM. Moreover, the TGI with 786-0 renal, in the experiment on A549 NSCLC, with COLO 205 colon, in the experiment with HCC-2998 colon, with HCT-15 colon and in the experiment with MDA-MB-231 breast was > 50 µM each time. Besides, the TGI with NCI-H522 lung is > 50 µM.

For the compound `CN(C)CCNC(=O)c1cc2c3ccccc3[nH]c2c2ncccc12`, the GI50 with 786-0 renal was 15.2 µM; in the experiment with A498 renal, 7.82 µM; with A549 NSCLC, 6.46 µM; in the experiment with COLO 205 colon, 2.95 µM; in the experiment on HCT-15 colon, 5.88 µM; with M14 melanoma, 12.1 µM. In addition, the results for the GI50 in the experiment on MDA-MB-231 breast, with NCI-H522 lung and in the experiment on SNB-75 CNS were 5.25 µM, 7.08 µM and 5.44 µM, respectively. In addition, the TGI in the experiment on 786-0 renal worked out at 53.5 µM; with A498 renal, 21.4 µM; with A549 NSCLC it was 36.9 µM; in the experiment with COLO 205 colon, 16.5 µM; with HCT-15 colon, 25 µM; in the experiment on M14 melanoma, 27.2 µM. Also, the values for the concentration for total growth inhibition (TGI) with MDA-MB-231 breast, in the experiment on NCI-H522 lung and with SNB-75 CNS were 26.8 µM, 24.5 µM and 21.4 µM, respectively.

With `COc1cc([N+](=O)[O-])c(OC)cc1-c1nc2sc(Cl)cn2c1/C=N/NC(=N)N/N=C/c1c(-c2cc(OC)c([N+](=O)[O-])cc2OC)nc2sc(Cl)cn12`, the GI50 in the experiment on 786-0 renal is 1.84 µM; in the experiment on A498 renal, 1.7 µM; in the experiment with COLO 205 colon, 1.89 µM; in the experiment with HCC-2998 colon, 1.69 µM; with HCT-15 colon, 4.54 µM; with M14 melanoma, 1.91 µM. The GI50 in the experiment with MDA-MB-231 breast was 1.59 µM. The TGI is 3.29 µM with 786-0 renal; 3.13 µM with A498 renal; 4.08 µM in the experiment with COLO 205 colon; 3.15 µM with HCC-2998 colon; 22.5 µM in the experiment with HCT-15 colon; 3.36 µM in the experiment with M14 melanoma. Further, the TGI in the experiment with MDA-MB-231 breast is 3.4 µM.

Turning to `C[CH2][Sn]([Cl])([Cl])[CH2]C`, the GI50 in the experiment with 786-0 renal was 28.9 µM; in the experiment on A498 renal it was 23.4 µM; in the experiment on A549 NSCLC, > 100 µM; in the experiment with COLO 205 colon, 19.1 µM; in the experiment on HCC-2998 colon, > 64.9 µM; with HCT-15 colon it was > 43.2 µM. For the same compound, the GI50 was 24.1 µM in the experiment with M14 melanoma, 1.16 µM with NCI-H522 lung and 24.9 µM in the experiment on SNB-75 CNS. For the same compound, the TGI was > 56 µM in the experiment on 786-0 renal; 43.7 µM in the experiment with A498 renal; > 100 µM in the experiment with A549 NSCLC; 34.8 µM in the experiment with COLO 205 colon; > 100 µM in the experiment on HCC-2998 colon; > 60.9 µM with HCT-15 colon. Moreover, the figures for the TGI with M14 melanoma, in the experiment on NCI-H522 lung and with SNB-75 CNS were 57.7 µM, 2.67 µM and > 61.7 µM, respectively.

For the compound `COc1cc([C@@H]2OC(=O)C3C2C(=O)O[C@H]3c2cc(OC)c(OC)c(OC)c2)cc(OC)c1OC` (some centres not stated), the TGI in the experiment with 786-0 renal, with A498 renal, in the experiment with A549 NSCLC, in the experiment on COLO 205 colon, with HCC-2998 colon and in the experiment with HCT-15 colon was > 100 µM in each case. Also, the TGI in the experiment with M14 melanoma, in the experiment with NCI-H522 lung and with SNB-75 CNS was > 100 µM each time.

(Values after PubChem BioAssay (NCI).)
